Reference: the NIST ThermoML archive (doi:10.1021/je300568h)
± gives the expanded uncertainty stated by the source.

Details: Liquid, Ebulliometric method (Recirculating still)

Structure (SMILES)	vapor or sublimation pressure (330.9 K) [kPa]	vapor or sublimation pressure (345 K) [kPa]	vapor or sublimation pressure (355.1 K) [kPa]	vapor or sublimation pressure (363.2 K) [kPa]	vapor or sublimation pressure (366.7 K) [kPa]	vapor or sublimation pressure (420.2 K) [kPa]	vapor or sublimation pressure (436.7 K) [kPa]	vapor or sublimation pressure (448.2 K) [kPa]	vapor or sublimation pressure (457.9 K) [kPa]
CCCCN(C)C [N,N-dimethylbutanamine]	29.84 ± 0.86	49.84 ± 0.99	69.83 ± 1.3	89.83 ± 1.6	99.83 ± 1.7	–	–	–	–
CCCCCCCCN(C)C [N,N-dimethyl-1-octanamine]	–	–	–	–	–	29.84 ± 0.74	49.84 ± 0.89	69.83 ± 1.2	89.83 ± 1.3
